{"source": "paper PMC4509505", "about": "(Journal of functional foods, 2015)", "key": {"human lung cancer cells": {"test_system": "human lung cancer cells", "details": "human lung cancer cells in vitro; ref Forester & Lambert, 2014; cited from earlier work"}, "murine lung cancer cells": {"test_system": "murine lung cancer cells", "details": "murine lung cancer cells in vitro; ref Forester & Lambert, 2014; cited from earlier work"}, "COMT": {"test_system": "COMT", "details": "ref Wang, Heber, & Henning, 2012; cited from earlier work"}, "[1]": {"type": "in vivo, male CF-1 mice", "details": "for AUC0→720min / Cmax / Tmax: EGCG 100 mg/kg i.g."}, "[2]": {"biological_target": "T1, catechol-O-methyl transferase (COMT) (Mus musculus, UniProt O88587)", "T1 sequence (O88587 1-265)": "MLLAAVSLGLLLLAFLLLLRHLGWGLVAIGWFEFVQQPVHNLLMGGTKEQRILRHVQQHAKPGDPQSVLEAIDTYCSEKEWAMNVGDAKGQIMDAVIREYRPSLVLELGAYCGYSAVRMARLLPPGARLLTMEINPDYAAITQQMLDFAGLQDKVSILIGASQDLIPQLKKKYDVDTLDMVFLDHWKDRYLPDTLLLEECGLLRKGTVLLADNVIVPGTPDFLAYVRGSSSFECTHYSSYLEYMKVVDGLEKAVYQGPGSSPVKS", "assay": "Fraction of unmethylated total EGCG", "type": "in vivo, male CF-1 mice"}}, "note": "Where two headings read alike, the source gives them in different places."}
{"smiles": "CCN(CC)C(=O)/C(C#N)=C/c1cc(O)c(O)c([N+](=O)[O-])c1", "note": "[entacapone]", "values": [{"measurement": "growth inhibition in combination with EGCG", "setting": "human lung cancer cells", "result": "synergistically inhibited"}, {"measurement": "growth inhibition in combination with EGCG", "setting": "murine lung cancer cells", "result": "synergistically inhibited"}]}
{"smiles": "O=c1c(O)c(-c2ccc(O)c(O)c2)oc2cc(O)cc(O)c12", "note": "[quercetin]", "values": [{"measurement": "increase of the levels of EGCG found in the lung and kidney", "setting": "COMT", "result": "greater than 2 fold"}]}
{"smiles": "Cc1ccc(C(=O)c2cc(O)c(O)c([N+](=O)[O-])c2)cc1", "note": "[TOL, tolcapone, reference compound]", "values": [{"measurement": "effect on Cmax of unmethylated, unconjugated EGCG", "setting": "[1]; cecum or colon, TOL co-treatment vs EGCG only", "result": "did not affect"}, {"measurement": "effect on AUC0→720min of unmethylated, unconjugated EGCG", "setting": "[1]; liver, kidney, lung and urine, TOL co-administration vs EGCG only", "result": "tended to increase"}, {"measurement": "effect on AUC0→720min of unmethylated, unconjugated EGCG", "setting": "[1]; plasma, cecum and colon, TOL co-treatment vs EGCG only", "result": "nor did it affect"}, {"measurement": "effect on Cmax of unmethylated, unconjugated EGCG", "setting": "[1]; plasma, liver, kidney, lung and urine, TOL co-administration vs EGCG only", "result": "tended to increase"}, {"measurement": "effect on levels of unmetabolised (unmethylated, unconjugated) EGCG", "setting": "[1]; plasma, co-treatment TOL 30 mg/kg + EGCG 100 mg/kg i.g. vs EGCG only (Fig. 2)", "result": "did not significantly affect"}, {"measurement": "growth inhibition in combination with EGCG", "setting": "human lung cancer cells", "result": "synergistically inhibited"}, {"measurement": "growth inhibition in combination with EGCG", "setting": "murine lung cancer cells", "result": "synergistically inhibited"}]}
{"smiles": "O=C(O[C@@H]1Cc2c(O)cc(O)cc2O[C@@H]1c1cc(O)c(O)c(O)c1)c1cc(O)c(O)c(O)c1", "note": "[EGCG, (−)-epigallocatechin-3-gallate]", "values": [{"measurement": "AUC0→720min", "setting": "[1]; Cecum, TOL (+) 30 mg/kg i.g.", "result": "39152.8 ± 8338.2 (nmol/g)•min"}, {"measurement": "Cmax", "setting": "[1]; Cecum, TOL (+) 30 mg/kg i.g.", "result": "97.7 ± 19.4", "unit": "nmol/g"}, {"measurement": "Tmax", "setting": "[1]; Cecum, TOL (+) 30 mg/kg i.g.", "result": "7.555 ± 2.118", "unit": "h"}, {"measurement": "AUC0→720min", "setting": "[1]; Cecum, TOL (−)", "result": "41580.2 ± 10560.6 (nmol/g)•min"}, {"measurement": "Cmax", "setting": "[1]; Cecum, TOL (−)", "result": "117.7 ± 31.7", "unit": "nmol/g"}, {"measurement": "Tmax", "setting": "[1]; Cecum, TOL (−)", "result": "5.013 ± 1.66", "unit": "h"}, {"measurement": "AUC0→720min", "setting": "[1]; Colon, TOL (+) 30 mg/kg i.g.", "result": "18631.3 ± 2844.0 (nmol/g)•min"}, {"measurement": "Cmax", "setting": "[1]; Colon, TOL (+) 30 mg/kg i.g.", "result": "37.6 ± 5.8", "unit": "nmol/g"}, {"measurement": "Tmax", "setting": "[1]; Colon, TOL (+) 30 mg/kg i.g.", "result": "4 ± 1", "unit": "h"}, {"measurement": "AUC0→720min", "setting": "[1]; Colon, TOL (−)", "result": "26301.3 ± 8881.3 (nmol/g)•min"}, {"measurement": "Cmax", "setting": "[1]; Colon, TOL (−)", "result": "63.8 ± 9.6", "unit": "nmol/g"}, {"measurement": "Tmax", "setting": "[1]; Colon, TOL (−)", "result": "7 ± 2.645", "unit": "h"}, {"measurement": "AUC0→720min", "setting": "[1]; Kidney, TOL (+) 30 mg/kg i.g.", "result": "461.7 ± 358.5 (nmol/g)•min"}, {"measurement": "Cmax", "setting": "[1]; Kidney, TOL (+) 30 mg/kg i.g.", "result": "2.0 ± 1.7", "unit": "nmol/g"}, {"measurement": "Tmax", "setting": "[1]; Kidney, TOL (+) 30 mg/kg i.g.", "result": "4.445 ± 3.783", "unit": "h"}, {"measurement": "AUC0→720min", "setting": "[1]; Kidney, TOL (−)", "result": "95.7 ± 5.6 (nmol/g)•min"}, {"measurement": "Cmax", "setting": "[1]; Kidney, TOL (−)", "result": "0.4 ± 0.1", "unit": "nmol/g"}, {"measurement": "Tmax", "setting": "[1]; Kidney, TOL (−)", "result": "6.028 ± 3.44", "unit": "h"}, {"measurement": "AUC0→720min", "setting": "[1]; Liver, TOL (+) 30 mg/kg i.g.", "result": "1324.8 ± 390.5 (nmol/g)•min"}, {"measurement": "Cmax", "setting": "[1]; Liver, TOL (+) 30 mg/kg i.g.", "result": "2.7 ± 0.7", "unit": "nmol/g"}, {"measurement": "Tmax", "setting": "[1]; Liver, TOL (+) 30 mg/kg i.g.", "result": "3.528 ± 1.792", "unit": "h"}, {"measurement": "AUC0→720min", "setting": "[1]; Liver, TOL (−)", "result": "871.5 ± 401.9 (nmol/g)•min"}, {"measurement": "Cmax", "setting": "[1]; Liver, TOL (−)", "result": "2.2 ± 0.9", "unit": "nmol/g"}, {"measurement": "Tmax", "setting": "[1]; Liver, TOL (−)", "result": "3.333 ± 0.918", "unit": "h"}, {"measurement": "AUC0→720min", "setting": "[1]; Lung, TOL (+) 30 mg/kg i.g.", "result": "1002.1 ± 682.1 (nmol/g)•min"}, {"measurement": "Cmax", "setting": "[1]; Lung, TOL (+) 30 mg/kg i.g.", "result": "23.3 ± 20.8", "unit": "nmol/g"}, {"measurement": "Tmax", "setting": "[1]; Lung, TOL (+) 30 mg/kg i.g.", "result": "2.792 ± 1.893", "unit": "h"}, {"measurement": "AUC0→720min", "setting": "[1]; Lung, TOL (−)", "result": "203.3 ± 156.4 (nmol/g)•min"}, {"measurement": "Cmax", "setting": "[1]; Lung, TOL (−)", "result": "1.4 ± 1.2", "unit": "nmol/g"}, {"measurement": "Tmax", "setting": "[1]; Lung, TOL (−)", "result": "2.355 ± 1.38", "unit": "h"}, {"measurement": "AUC0→720min", "setting": "[1]; Plasma, TOL (+) 30 mg/kg i.g.", "result": "154887.7 ± 39082.1", "unit": "nM·min"}, {"measurement": "Cmax", "setting": "[1]; Plasma, TOL (+) 30 mg/kg i.g.", "result": "1.53 ± 0.345", "unit": "µM"}, {"measurement": "Tmax", "setting": "[1]; Plasma, TOL (+) 30 mg/kg i.g.", "result": "0.208 ± 0.0567", "unit": "h"}, {"measurement": "AUC0→720min", "setting": "[1]; Plasma, TOL (−)", "result": "245330.8 ± 74700.1", "unit": "nM·min"}, {"measurement": "Cmax", "setting": "[1]; Plasma, TOL (−)", "result": "1.19 ± 0.315", "unit": "µM"}, {"measurement": "Tmax", "setting": "[1]; Plasma, TOL (−)", "result": "0.278 ± 0.15", "unit": "h"}, {"measurement": "Tmax", "setting": "[1]; Urine (pooled), TOL (+) 30 mg/kg i.g.", "result": 0.333, "unit": "h"}, {"measurement": "Tmax", "setting": "[1]; Urine (pooled), TOL (−)", "result": 0.083, "unit": "h"}, {"measurement": "unmethylated EGCG as fraction of the total", "setting": "[2]; plasma, EGCG 100 mg/kg i.g. with co-administration of TOL 30 mg/kg i.g.", "result": 87.9, "unit": "%"}, {"measurement": "unmethylated EGCG as fraction of the total", "setting": "[2]; plasma, mice treated with EGCG 100 mg/kg i.g. only", "result": 63.4, "unit": "%"}, {"measurement": "unmethylated EGCG as fraction of the total", "setting": "[2]; urine, EGCG 100 mg/kg i.g. plus TOL 30 mg/kg i.g.", "result": 81.8, "unit": "%"}, {"measurement": "unmethylated EGCG as fraction of the total", "setting": "[2]; urine, mice treated with EGCG 100 mg/kg i.g. only", "result": 29.2, "unit": "%"}]}
